Data on 13 molecules can be found in ChEMBL document CHEMBL6127065, “Design and Synthesis of c-Met and HDAC Dual Inhibitors for the Treatment of Breast Cancer” (ACS Med Chem Lett, 2024).

The structures appear in SMILES notation. pIC50: −log10 of the molar value.

In one assay the target is T1, Protein deacetylase HDAC6 (Homo sapiens) (UniProt Q9UBN7).
T1 sequence (whole entry): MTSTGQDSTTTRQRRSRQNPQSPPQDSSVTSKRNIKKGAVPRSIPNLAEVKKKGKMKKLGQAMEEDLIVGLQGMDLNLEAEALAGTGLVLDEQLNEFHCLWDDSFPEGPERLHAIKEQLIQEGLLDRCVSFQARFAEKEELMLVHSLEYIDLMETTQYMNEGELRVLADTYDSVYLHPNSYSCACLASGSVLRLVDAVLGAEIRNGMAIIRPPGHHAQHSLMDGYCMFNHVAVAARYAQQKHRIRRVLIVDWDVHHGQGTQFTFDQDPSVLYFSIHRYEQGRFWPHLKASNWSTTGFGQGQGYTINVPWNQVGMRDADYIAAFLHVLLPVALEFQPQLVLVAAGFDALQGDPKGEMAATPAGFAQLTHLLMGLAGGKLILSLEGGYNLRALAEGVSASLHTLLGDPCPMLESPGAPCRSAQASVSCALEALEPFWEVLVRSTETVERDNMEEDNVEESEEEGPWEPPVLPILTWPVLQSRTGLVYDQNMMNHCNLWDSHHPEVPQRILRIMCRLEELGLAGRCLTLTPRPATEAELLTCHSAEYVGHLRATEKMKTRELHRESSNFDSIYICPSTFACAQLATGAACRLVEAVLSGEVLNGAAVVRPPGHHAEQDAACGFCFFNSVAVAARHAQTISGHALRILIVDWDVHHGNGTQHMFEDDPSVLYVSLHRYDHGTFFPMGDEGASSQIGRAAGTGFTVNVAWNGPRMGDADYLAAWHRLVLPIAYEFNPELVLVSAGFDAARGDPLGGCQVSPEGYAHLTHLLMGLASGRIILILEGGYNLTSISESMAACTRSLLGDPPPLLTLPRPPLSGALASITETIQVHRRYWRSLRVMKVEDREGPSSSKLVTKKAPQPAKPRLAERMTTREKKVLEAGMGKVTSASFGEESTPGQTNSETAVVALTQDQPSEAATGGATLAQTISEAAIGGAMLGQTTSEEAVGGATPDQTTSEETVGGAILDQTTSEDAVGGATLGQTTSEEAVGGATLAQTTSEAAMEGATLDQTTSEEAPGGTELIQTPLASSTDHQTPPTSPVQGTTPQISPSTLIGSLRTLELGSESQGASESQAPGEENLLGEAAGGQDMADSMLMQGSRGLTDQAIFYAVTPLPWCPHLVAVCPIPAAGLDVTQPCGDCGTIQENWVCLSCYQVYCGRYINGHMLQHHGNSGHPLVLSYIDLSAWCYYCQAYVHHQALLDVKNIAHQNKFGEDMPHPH
The following applies: dose 1000.0 nM, time 60.0 min.
Regarding `Nc1cc(F)ccc1NC(=O)c1ccc(CNC(=O)/C=C/c2cccnc2)cc1` [TUCIDINOSTAT], the inhibition – broadly, how much of the control response was suppressed – was determined as 2.6%.

Another assay concerns MDA-MB-468. Description: Antiproliferative activity against human MDA-MB-468 cells assessed as reduction in cell growth incubated for 72 hrs by MTT assay. The following applies: MDA-MB-468, 72 h.
`C[C@@H](Oc1cc(-c2cnn(C3CCNCC3)c2)cnc1N)c1c(Cl)ccc(F)c1Cl` [CRIZOTINIB]: the pIC50 (as a rule, the negative decadic logarithm of the IC50, by convention in mol/L) was 5.58.

In the case of `CC(c1ccc2ncccc2c1)n1nnc2ncc(N3CCN(CCCC(=O)Nc4ccccc4N)CC3)nc21` (stereo not drawn), the negative-log IC50 (pIC50) is 4.72.

Take `CC(c1ccc2ncccc2c1)n1nnc2ncc(N3CCN(CC(=O)Nc4ccccc4N)CC3)nc21` (stereo not drawn): the pIC50 is 4.85.

For `CC(c1ccc2ncccc2c1)n1nnc2ncc(N3CCN(CC(=O)Nc4ccc(F)cc4N)CC3)nc21` (stereo not drawn), the pIC50 is 4.91.

Consider `CC(c1ccc2ncccc2c1)n1nnc2ncc(N3CCN(CCC(=O)Nc4ccc(F)cc4N)CC3)nc21` (stereo not drawn), for which the pIC50 is 5.04.

With `CC(c1ccc2ncccc2c1)n1nnc2ncc(N3CCN(Cc4ccc(C(=O)Nc5ccc(F)cc5N)cc4)CC3)nc21` (stereo not drawn), the pIC50 was 5.39.

As for `CC(c1ccc2ncccc2c1)n1nnc2ncc(N3CCN(Cc4ccc(CC(=O)Nc5ccccc5N)cc4)CC3)nc21` (stereo not drawn), the pIC50 is 5.20.

Regarding `CC(c1ccc2ncccc2c1)n1nnc2ncc(N3CCN(CCCC(=O)Nc4ccc(F)cc4N)CC3)nc21` (stereo not drawn), the pIC50 is 4.92.

In the case of `CC(c1ccc2ncccc2c1)n1nnc2ncc(N3CCN(Cc4ccc(CC(=O)Nc5ccc(F)cc5N)cc4)CC3)nc21` (stereo not drawn), the pIC50 is 5.41.

`CC(c1ccc2ncccc2c1)n1nnc2ncc(N3CCN(CCC(=O)Nc4ccccc4N)CC3)nc21` (stereo not drawn): the negative-log IC50 (pIC50) was 4.66.

With `Nc1cc(F)ccc1NC(=O)c1ccc(CNC(=O)/C=C/c2cccnc2)cc1` [TUCIDINOSTAT], the pIC50 was 5.46.

Take `CC(c1ccc2ncccc2c1)n1nnc2ncc(N3CCN(Cc4ccc(C(=O)Nc5ccccc5N)cc4)CC3)nc21` (stereo not drawn): the negative-log IC50 (pIC50) is 4.89.

The test system of the next assay is MDA-MB-231. Description: Antiproliferative activity against human MDA-MB-231 cells assessed as reduction in cell growth incubated for 72 hrs by MTT assay. The following applies: MDA-MB-231, 72 h.
As to `C[C@@H](Oc1cc(-c2cnn(C3CCNCC3)c2)cnc1N)c1c(Cl)ccc(F)c1Cl` [CRIZOTINIB], the pIC50 is 5.31.

For `CC(c1ccc2ncccc2c1)n1nnc2ncc(N3CCN(CCCC(=O)Nc4ccccc4N)CC3)nc21` (stereo not drawn), the pIC50 was 4.64.

On to `CC(c1ccc2ncccc2c1)n1nnc2ncc(N3CCN(CC(=O)Nc4ccccc4N)CC3)nc21` (stereo not drawn), for which the pIC50 is 4.58.

In the case of `CC(c1ccc2ncccc2c1)n1nnc2ncc(N3CCN(CC(=O)Nc4ccc(F)cc4N)CC3)nc21` (stereo not drawn), the negative-log IC50 (pIC50) was 4.73.

Take `CC(c1ccc2ncccc2c1)n1nnc2ncc(N3CCN(CCC(=O)Nc4ccc(F)cc4N)CC3)nc21` (stereo not drawn): the pIC50 is 4.64.

Regarding `CC(c1ccc2ncccc2c1)n1nnc2ncc(N3CCN(Cc4ccc(C(=O)Nc5ccc(F)cc5N)cc4)CC3)nc21` (stereo not drawn), the pIC50 is 5.23.

As for `CC(c1ccc2ncccc2c1)n1nnc2ncc(N3CCN(Cc4ccc(CC(=O)Nc5ccccc5N)cc4)CC3)nc21` (stereo not drawn), the pIC50 was 5.06.

Take `CC(c1ccc2ncccc2c1)n1nnc2ncc(N3CCN(CCCC(=O)Nc4ccc(F)cc4N)CC3)nc21` (stereo not drawn): the pIC50 is 4.57.

Regarding `CC(c1ccc2ncccc2c1)n1nnc2ncc(N3CCN(Cc4ccc(CC(=O)Nc5ccc(F)cc5N)cc4)CC3)nc21` (stereo not drawn), the pIC50 was 5.19.

For `CC(c1ccc2ncccc2c1)n1nnc2ncc(N3CCN(CCC(=O)Nc4ccccc4N)CC3)nc21` (stereo not drawn), the pIC50 is 4.52.

For `Nc1cc(F)ccc1NC(=O)c1ccc(CNC(=O)/C=C/c2cccnc2)cc1` [TUCIDINOSTAT], the pIC50 was 5.76.

For the molecule `CC(c1ccc2ncccc2c1)n1nnc2ncc(N3CCN(Cc4ccc(C(=O)Nc5ccccc5N)cc4)CC3)nc21` (stereo not drawn), the pIC50 was 4.81.

The test system of the next assay is MDA-MB-453. Description: Antiproliferative activity against human MDA-MB-453 cells assessed as reduction in cell growth incubated for 72 hrs by MTT assay. The following applies: MDA-MB-453, 72 h. (In general: Tetrazolium assays rely on reduction of a dye to a coloured formazan, in cell work by metabolically active cells.)
With `C[C@@H](Oc1cc(-c2cnn(C3CCNCC3)c2)cnc1N)c1c(Cl)ccc(F)c1Cl` [CRIZOTINIB], the pIC50 was 5.33.

With `CC(c1ccc2ncccc2c1)n1nnc2ncc(N3CCN(CCCC(=O)Nc4ccccc4N)CC3)nc21` (stereo not drawn), the pIC50 was 4.64.

Turning to `CC(c1ccc2ncccc2c1)n1nnc2ncc(N3CCN(CC(=O)Nc4ccccc4N)CC3)nc21` (stereo not drawn), the pIC50 is 4.56.

On to `CC(c1ccc2ncccc2c1)n1nnc2ncc(N3CCN(CC(=O)Nc4ccc(F)cc4N)CC3)nc21` (stereo not drawn), for which the pIC50 is 4.66.

`CC(c1ccc2ncccc2c1)n1nnc2ncc(N3CCN(CCC(=O)Nc4ccc(F)cc4N)CC3)nc21` (stereo not drawn): the pIC50 is 4.56.

On to `CC(c1ccc2ncccc2c1)n1nnc2ncc(N3CCN(Cc4ccc(C(=O)Nc5ccc(F)cc5N)cc4)CC3)nc21` (stereo not drawn), for which the pIC50 was 5.20.

For the molecule `CC(c1ccc2ncccc2c1)n1nnc2ncc(N3CCN(Cc4ccc(CC(=O)Nc5ccccc5N)cc4)CC3)nc21` (stereo not drawn), the pIC50 is 5.05.

For `CC(c1ccc2ncccc2c1)n1nnc2ncc(N3CCN(CCCC(=O)Nc4ccc(F)cc4N)CC3)nc21` (stereo not drawn), the pIC50 is 4.51.

For `CC(c1ccc2ncccc2c1)n1nnc2ncc(N3CCN(Cc4ccc(CC(=O)Nc5ccc(F)cc5N)cc4)CC3)nc21` (stereo not drawn), the pIC50 is 5.23.

In the case of `CC(c1ccc2ncccc2c1)n1nnc2ncc(N3CCN(CCC(=O)Nc4ccccc4N)CC3)nc21` (stereo not drawn), the pIC50 is 4.51.

For `Nc1cc(F)ccc1NC(=O)c1ccc(CNC(=O)/C=C/c2cccnc2)cc1` [TUCIDINOSTAT], the pIC50 is 6.20.

With `CC(c1ccc2ncccc2c1)n1nnc2ncc(N3CCN(Cc4ccc(C(=O)Nc5ccccc5N)cc4)CC3)nc21` (stereo not drawn), the pIC50 is 4.80.

The target of another assay is Hepatocyte growth factor receptor (Homo sapiens, UniProt P08581). In words: Inhibition of c-Met (unknown origin) using Poly(Glu:Tyr)(4:1) and ATP as substrate incubated for 45 mins by Kinase-Glo Max reagent based luminescence analysis.
Sequence of Hepatocyte growth factor receptor (P08581 whole entry): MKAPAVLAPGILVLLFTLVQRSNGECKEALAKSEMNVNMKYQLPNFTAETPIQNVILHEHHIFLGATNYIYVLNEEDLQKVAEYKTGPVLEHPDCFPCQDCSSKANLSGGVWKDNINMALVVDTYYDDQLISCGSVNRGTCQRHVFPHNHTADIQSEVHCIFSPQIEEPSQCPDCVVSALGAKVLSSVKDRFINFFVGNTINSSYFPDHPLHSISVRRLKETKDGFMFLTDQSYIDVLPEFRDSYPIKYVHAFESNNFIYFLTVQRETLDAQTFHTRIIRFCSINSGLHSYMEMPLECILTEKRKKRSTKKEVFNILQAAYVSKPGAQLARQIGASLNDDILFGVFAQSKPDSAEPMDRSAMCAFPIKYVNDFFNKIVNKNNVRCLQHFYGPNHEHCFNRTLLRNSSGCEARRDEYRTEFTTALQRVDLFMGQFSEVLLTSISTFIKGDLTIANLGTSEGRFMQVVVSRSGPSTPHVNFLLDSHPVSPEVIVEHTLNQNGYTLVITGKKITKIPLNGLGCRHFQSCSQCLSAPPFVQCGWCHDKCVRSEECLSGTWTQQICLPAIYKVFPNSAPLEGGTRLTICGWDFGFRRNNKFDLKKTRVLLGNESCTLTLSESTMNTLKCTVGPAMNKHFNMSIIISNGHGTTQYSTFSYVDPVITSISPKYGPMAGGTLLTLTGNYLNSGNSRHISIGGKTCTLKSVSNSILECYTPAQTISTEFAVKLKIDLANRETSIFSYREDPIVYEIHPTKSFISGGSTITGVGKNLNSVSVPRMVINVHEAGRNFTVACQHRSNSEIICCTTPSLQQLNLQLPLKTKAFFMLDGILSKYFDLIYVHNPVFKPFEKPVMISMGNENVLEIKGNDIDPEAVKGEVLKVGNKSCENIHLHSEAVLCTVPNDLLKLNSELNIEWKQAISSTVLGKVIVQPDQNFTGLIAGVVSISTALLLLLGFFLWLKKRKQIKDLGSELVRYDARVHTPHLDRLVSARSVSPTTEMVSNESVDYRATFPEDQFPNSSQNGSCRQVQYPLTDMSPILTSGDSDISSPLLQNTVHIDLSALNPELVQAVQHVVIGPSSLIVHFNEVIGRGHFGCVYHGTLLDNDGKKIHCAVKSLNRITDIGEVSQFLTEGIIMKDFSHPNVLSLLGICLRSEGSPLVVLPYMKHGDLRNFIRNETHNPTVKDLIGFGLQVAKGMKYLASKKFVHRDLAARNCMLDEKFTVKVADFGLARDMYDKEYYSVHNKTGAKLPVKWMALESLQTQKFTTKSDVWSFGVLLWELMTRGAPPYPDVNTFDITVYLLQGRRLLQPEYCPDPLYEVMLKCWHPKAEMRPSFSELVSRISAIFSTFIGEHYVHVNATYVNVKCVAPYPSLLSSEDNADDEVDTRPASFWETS
Settings: not given
On to `C[C@@H](c1ccc2nccn2c1)n1nnc2ncc(-c3cnn(C)c3)nc21` [SAVOLITINIB], for which the pIC50 is 8.85.
